Assay results: PubChem BioAssay (NCI)
“And” between values parts separate entries of the source, which are not always exact repeats. Equal entries are not always repeated.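 Exposure lasted 48 hours, with cells grown in 96-well plates and compounds tested at five concentrations. At the GI50, growth is halved. TGI marks complete inhibition of growth.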

Tests used:
Experiment in all cases: NCI-60 cell line screen, 48 h
[1] = test system: SW-620 colon
[2] = test system: HT29 colon
[3] = test system: COLO 205 colon
[4] = test system: SNB-75 CNS
[5] = test system: UO-31 renal
[6] = test system: NCI-H23 lung
[7] = test system: HS 578T breast
[8] = test system: SR leukemia
[9] = test system: DU-145 prostate
[10] = test system: OVCAR-4 ovarian

Row | SMILES | GI50 [1] | TGI [1] [µM] | GI50 [2] | TGI [2] [µM] | GI50 [3] | TGI [3] | GI50 [4] | TGI [4] | GI50 [5] | TGI [5] [µM] | GI50 [6] | TGI [6] [µM] | GI50 [7] | TGI [7] | GI50 [8] | TGI [8] [µM] | GI50 [9] | TGI [9] | GI50 [10] | TGI [10] [µM]
1 | O=C(Nc1ccccc1O)c1ccc(CNC(=O)c2ccsc2Nc2ccnc(C(F)(F)F)c2)cc1 | 2.5 µM | 10.5 | 3.05 µM | 12.6 | 3.4 µM | 13.4 µM | 2.57 µM | 43.5 µM | 1.32 µM | 4.34 | 1.72 µM | 4.88 | 2.71 µM | 16.2 µM | 2.81 µM | 29.1 | 2.12 µM | 5.67 µM | 1.74 µM | > 100
2 | Cn1cnc([N+](=O)[O-])c1Sc1nc(N)nc2nc[nH]c12 | 7.43 µM | > 100 | 5.19 µM | > 100 | 15 µM | > 74.5 µM | 1.08 µM | > 100 µM | 4.71 µM | > 100 | 5.61 µM | > 100 | 14.5 µM | > 100 µM | 0.682 µM | > 100 | 2.91 µM | > 100 µM | 4.38 µM | > 100
3 | COc1ccc(-c2cc(/C=C/C(=O)c3cc(OC)c(OC)c(OC)c3)[nH]n2)cc1OC | 1.5 µM | 4.16 | 1.3 µM | 2.73 | 1.75 µM | 3.57 µM | 1.31 µM | 3.77 µM | 1.27 µM | 2.59 | 1.97 µM | 4.91 | 2.91 µM | 22.2 µM | 0.22 µM | 2.26 | 1.83 µM | 4.12 µM | 1.62 µM | 7.17
4 | O=c1oc2ccc(F)cc2c(=O)n1-c1ccc(Br)cc1F | 1.11 µM | 25.5 | 3.4 µM | > 44.3 | 4.03 µM | 15.5 µM | 0.252 µM | 2.79 µM | 0.194 µM | 1.7 | 0.481 µM | – | 0.621 µM | 7.87 µM | 0.578 µM | > 100 | 0.781 µM | 22.8 µM | 1.27 µM | > 42.8
5 | O=C(Cc1ccc(/C=C/C(=O)c2ncc[nH]2)cc1)Nc1ccc(C(F)(F)F)cc1 | 1.35 µM | 5.17 | 1.09 µM | 4.47 | 5.38 µM | 11.8 µM | 3.97 µM | 9.12 µM | 2.43 µM | 6.74 | 3.42 µM | 9.26 | 5.88 µM | > 33.3 µM | 0.843 µM | > 33.3 | 2.13 µM | 6.3 µM | 5.12 µM | 22.1
6 | O=C(CCN1CCCC1)Nc1ccc2c(Nc3ccccc3)c3ccccc3nc2c1 | 0.232 µM | 1.87 | 0.521 µM | 3.14 | 0.787 µM | 2.49 µM | 1.09 µM | 2.33 µM | 0.808 µM | 2.38 | 0.383 µM | 2 | 1.09 µM | 3.28 µM | 0.0503 µM | 1.45 | 0.172 µM | 1.64 µM | 0.468 µM | 2.13
7 | Cn1cc(CO)c2ccccc21 | 19.1 µM | 91.1 | 30.2 µM | > 100 | 30.3 µM | > 100 µM | 27.6 µM | > 100 µM | 4.28 µM | > 100 | 48.2 µM | > 100 | 38.5 µM | > 100 µM | 17.9 µM | > 100 | > 100 µM | > 100 µM | 56.5 µM | > 100
8 | O=C(O)C1C(C(=O)O)C2(Cl)C(Cl)=C(Cl)C1(Cl)C2(Cl)Cl.[Cd] (centres undefined) | 23.1 µM | 77.1 | 18.4 µM | 35.9 | 20.5 µM | 38.6 µM | 10.7 µM | 26.4 µM | 20.1 µM | 39.3 | 2.62 µM | 9.17 | 23.5 µM | > 87 µM | 2.8 µM | 32.7 | 17.8 µM | 34.5 µM | 14.9 µM | 37.5
9 | COc1ccc(-c2nc3c(c(=O)n2C(C)=O)C(c2ccc(Cl)cc2)c2sc4c(Cl)cccc4c2O3)cc1 (centres undefined) | 0.376 µM | 1.75 | 0.325 µM | 1.09 | 0.355 µM | 1.32 µM | 0.738 µM | 9.98 µM | 0.329 µM | 2.39 | 0.343 µM | 2.09 | 0.521 µM | 4.44 µM | 0.354 µM | 5.05 | 0.394 µM | 1.96 µM | 0.845 µM | 3.66
10 | CN(C)C(=O)SC1=C(c2c(Cl)cccc2Cl)C(=O)c2ccccc21 | 2.17 µM | 5.01 | 3.47 µM | 11.9 | 2.22 µM | 4.42 µM | 7.94 µM | 23.9 µM | 2.18 µM | 6.51 | 7.14 µM | 19 | 20 µM | > 75.5 µM | 3.56 µM | 88.9 | 2.4 µM | 5.61 µM | 4.24 µM | 10.8
11 | CC(=O)Oc1ccc(C2(c3ccc(OC(C)=O)cc3)C(=O)Nc3ccccc32)cc1 | 36.7 µM and 31.5 µM | > 100 | 30.4 µM and 45.3 µM | > 100 | 0.0741 µM and 0.155 µM | 11.9 µM and 29.8 µM | 17.2 µM and 23.8 µM | 59 µM and > 79.9 µM | 24 µM and 27.5 µM | > 100 | 9.3 µM and 19.3 µM | > 100 | 0.0651 µM and 0.153 µM | 0.484 µM and 0.7 µM | 25.1 µM and 24.2 µM | > 100 | 24.4 µM and 28.7 µM | > 70.4 µM and 95.3 µM | 0.0347 µM and 0.0389 µM | 1.42
12 | CN(C)CCCC1(c2ccc(F)cc2)OCc2cc(-c3cncc4ccccc34)ccc21 (centres undefined) | 3.08 µM | 11.5 | 2.36 µM | 8.23 | 2.07 µM | 4.72 µM | 1.66 µM | 6.86 µM | 1.53 µM | 4.41 | 5.73 µM | 20.1 | 2.78 µM | 11.6 µM | 3 µM | 17.9 | 3.4 µM | 11.8 µM | 3.27 µM | 13.7
